≈ marks a conversion by molar mass, not a printed value. Where two headings read alike, the source gives them in different places.

Data set [1] can be described thus: Solubilization of lumichrome in the FMN formulation. The data set is classed as physicochemical. The conditions noted are these: in the current FMN formulation.
The nature of data set [2]: Solubility of riboflavin as a function of pH and % FMN. Format: physicochemical. The text has this: The intrinsic solubility of riboflavin is approximately 70 mcg/ml (see plot below with no FMN present). Precipitation is expected to occur if riboflavin reaches a level above this (due to riboflavin in drug substance or due to degradation to riboflavin with time), and precipitation would be unacceptable for patient safety with intravenous use.
Solubility of Riboflavin as a function of pH and % FMN [formula]
At 1% FMN, up to 365 mcg/ml of riboflavin can dissolve.

For the compound `Cc1cc2nc3[nH]c(=O)[nH]c(=O)c3nc2cc1C` [lumichrome], in data set [1], the “solubility of lumichrome relative to equilibrium solubility” value is recorded as “dissolve at levels above the equilibrium solubility”.
Turning to `Cc1cc2nc3c(=O)[nH]c(=O)nc-3n(C[C@H](O)[C@H](O)[C@H](O)CO)c2cc1C` [riboflavin], the solubility was at most 365 µg/mL in data set [2] (1% FMN solution, aqueous with cosolvent or surfactant or cyclodextrin, read-out: riboflavin solubility (amount that can dissolve)); at most 1320 µg/mL in data set [2] (5% FMN solution, aqueous with cosolvent or surfactant or cyclodextrin, 5% FMN, pH 7-8, read-out: riboflavin solubility (amount that can dissolve)); around 70 µg/mL (≈ 186 µM) in data set [2] (no FMN present, read-out: intrinsic (equilibrium) solubility of riboflavin). For the same compound, the “intrinsic (equilibrium) solubility of riboflavin” value in data set [2] (no FMN present) was “approximately 70 mcg/ml”.

In general, solubility refers to the concentration that dissolves in the medium under given conditions.

The values above are taken from patent US20030162751A1, “Pharmaceutical composition comprising 5' monophosphate ester of riboflavin and solubilized riboflavin” (priority 2001, published 2003).
